1 compound from publication PMC7203153, “Rational identification and characterisation of peptide ligands for targeting polysialic acid” (Scientific Reports, 2020) can be followed below.

The nature of experiment [1]: Peptide microarray affinity screening against α-2,8-PSA (colominic acid). Format: binding, Escherichia coli. Conditions: 10 μM CA. On the procedure:
(§1) Peptide library synthesis, microarray preparation, and microarray screening were performed as described previously[25] with the following specifications. Siglec-related sequences were N-terminally acetylated to match the charge of the corresponding protein fragment. All peptides were printed in triplicate (60 nL spots), and each initial affinity screening was carried out at least three times. Screening was conducted with 10 μM colominic acid (CA; 5 mL per microarray), the Escherichia coli homolog of α-2,8-PSA identical in structure to human-derived PSA[67], and with antibody-based chemiluminescent detection of CA. For selectivity screening, microarrays were challenged with 10 μM CA with 0, 0.1, 1, and 10 μM α-2,8/9-PSA in separate conditions (5 mL total volume each), where molar concentrations were based on molecular weight estimation of synthesized 2,8/9-PSA (details on α-2,8/9-PSA production, purification, and analysis are provided in Supplementary Information). Selectivity screening with monomeric sialic acid was conducted with mass and molar equivalents of N-acetylneuraminic acid (Rose Scientific, Ltd.) along with 10 μM CA (5 mL total volume each). The mass equivalent amount of sialic acid (specifically, 970 μM sialic acid for a given volume of 10 μM CA) was calculated for CA of an average degree of polymerization of 100. For study of pH-dependent binding, affinity screening with CA was performed using PBS buffers of pH 6.0, 7.0, 7.4, and 8.0 (10 mM phosphate, 100 mM NaCl). The impact of NaCl on peptide binding was assessed at pH 7.4 with 0, 100, and 200 mM NaCl.
Microarray image and data analysis was performed as described. […] Of the triplicate experiments used to generate mean microarray affinity intensities in standard conditions (within each of which 762 peptides were represented in triplicate), 225 out of 762 values in one of these three experiments were derived from raw data previously reported, but were alternatively analysed as stated. Peptide isoelectric points were calculated with the EMBOSS iep program.

Experiment [2] in a line: Competitive microarray selectivity screening with α-2,8/9-PSA. The class given is binding, Escherichia coli. Conditions: 10% competing α-2,8/9-PSA. On the procedure: Competitive microarray screening with α-2,8/9-PSA was conducted in order to assess selective binding of peptides to α-2,8-PSA. The definition of percent selectivity at 10% competing glycan was applied to enable selectivity comparisons amongst a larger set of peptides[25] […] However, the use of an isomeric polymer is a more stringent assessment of selectivity; here, selective binding is guided by three-dimensional conformation and not additionally by differences in functional groups.
as §1, with “NaCl. […]” for “NaCl.”

Another experiment is described as follows: FA assay with Neu5Ac. Format: binding. Conditions: absence of PSA; Neu5Ac up to 150 mM; PBS pH 7.4. On the procedure:
(§2) a Neu5Ac concentration (µM) b Neu5Ac concentration (µM) c CS-A concentration (µM)
(§3) Supplementary Figure S4. (a–b) Interaction of I-P24 and I-P264 with Neu5Ac as asses sed by fluorescence anisotropy (FA) titrations in the (a) absence or (b ) presence of 500 µM P S A.
(§4) For a given volume, the highest concentration tested (150 mM) is approximately mass […]
(§5) equivalent to 1.5 mM PSA. […]
(§6) except for a small decrease in anisotropy at the highest concentrations of Neu 5Ac, indicating specific peptide binding to PSA. Error bars represent standard deviations from two independent experiments (0.15–15000 µM), with triplicate intra-as say measurements (0.15–150000 µM) .
(§7) (c) FA assay for binding of I-P24 and I-P264 to chondroitin sulphate A (CS-A). […] Anisotropies were determined from triplicate measurements (error bars excluded for clarity). […]
(§8) Asse ssment of selective binding of peptides with the FA assay is only presented in the context of alternative glycans as proof-of-principle above. However, given the comparatively lower sensitivity of microarray screening, FA may be employed for quantifying affinity in various buffers to asses s the effects of various ions, if any, on PSA binding. […]
(§9) (also on this page, place not known: Assessment assess assessed (b) Neu5Ac, PSA. intra-assay µM). assessment experiments, 5Ac (µM)a cNeu5Ac Anisotropy (mA) Anisotropy (mA) Anisotropy (mA)) […]

Experiment [3] can be described thus: FA assay with chondroitin sulphate A. Conditions: FA assay as for peptide–PSA; triplicate measurements; read-out: KD for binding to CS-A. The protocol:
as §2, §3, §4, §5, §6, §7, §8, §9

Each structure is given as a SMILES string. Marks after values point to notes of the source that are not given here. Where a SMILES comes first, the peptide text is derived from it. Some results are limits rather than exact numbers.

On to `CC(=O)N[C@@H](Cc1ccccc1)C(=O)N[C@@H](CCCCN)C(=O)NCC(=O)N[C@@H](CCCNC(=N)N)C(=O)N[C@H](C(=O)N[C@@H](CO)C(=O)N1CCC[C@H]1C(=O)N[C@@H](CCCCN)C(=O)N[C@H](C(=O)NCC(=O)N[C@@H](C)C(=O)N1CCC[C@H]1C(=O)N[C@H](C(=O)N[C@@H](C)C(=O)N[C@H](C(N)=O)[C@@H](C)O)C(C)C)[C@@H](C)O)[C@@H](C)O` [I-P24] (Ac-FKGRTSPKTGAPVAT-NH2), for which the “change in microarray binding with 200 mM vs 100 mM NaCl” value in experiment [1] (pH 7.4) is “did not display any change in binding”. In addition, the “microarray binding to PSA without NaCl” value in experiment [1] (pH 7.4, 0 mM NaCl) was “detectable binding”. Moreover, in experiment [1] (762-peptide library, three independent screens, triplicate measurements), the “microarray binding intensity (rank within library)” value is on record as “top 2%”. In addition, the “selectivity mark in Table 1” value in experiment [2] is listed as “I-P24* (Peptides with selectivity >80%)”. The “binding to Neu5Ac by FA titration” value in the experiment “FA assay with Neu5Ac” is listed as “minimal”. In addition, the Kd – broadly, the concentration at which binding is half-saturated – in experiment [3] is greater than 1000 µM.
